≈ marks a conversion by molar mass, not a printed value.
Tests used:
[1] = patients with reversible obstructive respiratory diseases; cited from earlier work
[2] = Estimated shelf-life of formoterol in the compositions (Arrhenius kinetics); type: physicochemical; conditions: in the compositions provided herein
Excerpt: (§1) Stability samples of the solutions prepared in EXAMPLES 1 and 2 were placed in scintillation vials with teflon-lined caps and stored in stability ovens at accelerated temperatures. At selected time points, aliquots of the samples were removed from the scintillation vials.

[3] = Decomposition kinetics of formoterol in aqueous solution (stability testing by HPLC at accelerated temperatures); type: physicochemical
Excerpt: In the embodiments herein, the compositions have a pH of about 2.0 to about 8.0. In other embodiments, the compositions have a pH of about 4.0 to about 6.0, or about 4.5 to about 5.5. In certain of the above embodiments, the compositions are formulated at a pH of about 4, 4.4 or 4.6 up to about 5.5, 5.7 or 6. In other embodiments, the pH is about 5.0.
In other of the above embodiments, the compositions further contain a buffer, including, but not limited to, citric acid/phosphate, acetate, barbital, borate, Britton-Robinson, cacodylate, citrate, collidine, formate, maleate, Mcllvaine, phosphate, Prideaux-Ward, succinate, citrate-phosphate-borate (Teorell-Stanhagen), veronal acetate, MES (2-(N-morpholino)ethanesulfonic acid), BIS-TRIS (bis(2-hydroxyethyl)iminotris(hydroxymethyl)methane), ADA (N-(2-acetamido)-2-iminodiacetic acid), ACES (N-(carbamoylmethyl)-2-aminoethanesulfonic acid), PIPES (piperazirie-N,N′-bis(2-ethanesulfonic acid)), MOPSO (3-(N-morpholino)-2-hydroxypropanesulfonic acid), BIS-TRIS PROPANE (1,3-bis(tris(hydroxymethyl)methylamino)propane), BES (N,N-bis(2-hydroxyethyl)-2-aminoethanesulfonic acid), MOPS (3-(N-morpholino)propanesulfonic acid), TES (N-tris(hydroxymethyl)methyl-2-aminoethanesulfonic acid), HEPES (N-(2-hydroxyethyl)piperazine-N′-(2-ethanesulfonic acid), DIPSO (3-(N,N-bis(2-hydroxyethyl)amino)-2-hydroxypropanesulfonic acid), MOBS (4-(N-morpholino)butanesulfonic acid), TAPSO (3-(N-tris(hydroxymethyl)methylamino)-2-hydroxypropanesulfonic acid), TRIZMAO (tris(hydroxymethylaminomethane), HEPPSO (N-(2-hydroxyethyl)piperazine-N′-(2-hydroxypropanesulfonic acid), POPSO (piperazine-N,N′-bis(2-hydroxypropanesulfonic acid)), TEA (triethanolamine), EPPS (N-(2-hydroxyethyl)piperazine-N′-(3-propanesulfonic acid), TRICINE (N-tris(hydroxymethyl)methylglycine), GLY-GLY (glycylglycine), BICINE (N;N-bis(2-hydroxyethyl)glycine), HEPBS (N-(2-hydroxyethyl)piperazine-N′-(4-butanesulfonic acid)), TAPS (N-tris(hydroxymethyl)methyl-3-aminopropanesulfonic acid), AMPD (2-amino-2-methyl-1,3-propanediol), and/or any other buffers known to those of skill in the art. In one embodiment, the buffer is citric acid/phosphate buffer, acetate buffer, citrate buffer or phosphate buffer. In another embodiment, the buffer is a citrate buffer (citric acid/sodium citrate). […] Buffer concentrations for use herein include from about 0 or 0.01 mM to about 150 mM, or about 1 mM to about 20 mM. In one embodiment, the buffer concentration is about 5 mM. In another embodiment, the buffer concentration is about 1 mM to about 50 mM, or about 20 mM. […] The particular buffer and buffer concentration of a given composition for long term storage provided herein may be determined empirically using standard stability assays well known to those of skill in the art (see, e.g., the Examples).
The solutions were stored at 60° C.
as §1

## COc1ccc(CC(C)NCC(O)c2ccc(O)c(NC=O)c2)cc1 (racemic) [formoterol, 2-hydroxy-5-((1RS)-1-hydroxy-2-(((1RS)-2-(p-methoxyphenyl)-1-methylethyl)amino)ethyl)formanilide]
physchem; aqueous buffer
  solubility: ~2200 µg/mL (≈ 6.39 mM)
physchem; pH 3, aqueous buffer
  solubility: ~4800 µg/mL (≈ 13.9 mM)
physchem; pH 4, aqueous buffer
  solubility: ~3000 µg/mL (≈ 8.71 mM)
physchem; water
  solubility: ~2000 µg/mL (≈ 5.81 mM)
[1]
  duration of bronchodilatory effect: greater than 12 hours
  onset of bronchodilatory effect: 1 to 3 min
[2]; 5° C.
  estimated shelf-life: about 6.2 years
[2]; 25° C.
  estimated shelf-life: about 7.5 months
[3]; 60° C., buffer concentration 5 mM, ionic strength 0.05
  pH at which decomposition in aqueous solution is slowest: about 5.0
[3]; 60° C., pH 3, buffer concentration 5 mM, ionic strength 0.05
  rate constant (kobs) for decomposition of an aqueous solution: approximately 0.62 day^−1
[3]; 60° C., pH 4, buffer concentration 5 mM, ionic strength 0.05
  rate constant (kobs) for decomposition of an aqueous solution: ~0.11 day⁻¹
[3]; 60° C., pH 5, buffer concentration 5 mM, ionic strength 0.05
  rate constant (kobs) for decomposition of an aqueous solution: ~0.044 day⁻¹
[3]; 60° C., pH 7, buffer concentration 5 mM, ionic strength 0.05
  rate constant (kobs) for decomposition of an aqueous solution: ~0.55 day⁻¹
[3]; low and approximately neutral conditions (pH)
  effect of increasing buffer concentration from 5 mM to 20 mM on rate constant of decomposition: increased the rate constant of decomposition significantly
[3]; pH region of about 4.5 to about 5.5
  effect of increasing buffer concentration from 5 mM to 20 mM on rate constant of decomposition: no noticeable differences in rate constant

From patent US6814953B2, “Bronchodilating compositions and methods” (Dey L.P., priority 2001, dated 2004)
